From PMC5796017, “Enantiomeric Effect of D-Amino Acid Substitution on the Mechanism of Action of α-Helical Membrane-Active Peptides” (International Journal of Molecular Sciences, 2017) come the findings set out here.

The nature of data set [1]: RP-HPLC retention time as relative hydrophobicity. As to conditions: 25 °C, used by the paper as measure of relative hydrophobicity. Type of data set: physicochemical. As to the method: The RP-HPLC retention time has been widely used to represent the relative hydrophobicity of peptides in many studies.The relative hydrophobicity of the peptides was determined by the RP-HPLC retention times at 25 °C. The change in hydrophobicity of the peptides caused by D-amino acid substitutions was mainly due to the disruption of the helical structure.

Data set [2] is described as follows: Circular dichroism (CD) secondary structure. As to conditions: for [θ]222, benign / [θ]222, 50% TFE: CD, 75 μM peptide, 25 °C; for [θ]222, benign: KP buffer (100 mM KCl, 50 mM KH2PO4/K2HPO4, pH 7.4); for [θ]222, 50% TFE / α-Helix (%), 50% TFE (relative helicity): KP buffer with 50% TFE; for α-Helix (%), 50% TFE (relative helicity) / α-Helix (%), benign: relative to molar ellipticity of V13K in 50% TFE; for α-Helix (%), benign: KP buffer. The format is physicochemical. The source says: The influence of the amino acid substitutions on the peptide secondary structure were investigated using circular dichroism (CD) spectroscopy under benign conditions (KP buffer) and under conditions designed to mimic the hydrophobic environment of the membrane (KP buffer with 50% TFE). D-amino acid substitutions reduced the helicity of the peptide analogs relative to that of peptide V13K, in both KP buffer and KP buffer with 50% TFE. […] As shown in Table 2 and Figure S1, the values of the relative helicity of peptides with polar face substitutions are in the order of K14D (76.99%) > S11D/K14D (51.33%) > S11D/K14D/T15D (38.67%). Similarly, the relative helicity of the peptides with substitutions on the non-polar face follows the same trend: A12D (70.83%) > F9D/A12D (38.26%) > F9D/A12D/V16D (36.41%). Since the values of the relative helicity of the peptides with D-amino acid substitutions on the non-polar face were less than those peptide analogs with the same number of D-amino acid substitutions on the polar face, it is clear that the amino acid residues on the non-polar face may be more important for stabilizing the α-helical structure than residues on the polar face.
The secondary structures of the peptides were examined using a Jasco J-810 CD spectrometer (Jasco, Easton, MD, USA) at 25 °C as described previously. […] The mean residue molar ellipticities were calculated according to the equation [θ] = θ/10lCMn, in which, θ represents the ellipticity in millidegrees, l is the optical path length of the cuvette in centimeters, CM is the peptide concentration in mol/L, and n is the number of residues in the peptide. The mean residue molar ellipticities at 222 nm, [θ]222 (degree·cm^2·dmol^−1), were used to calculate the relative helical content of the peptides.
For orientation: Circular dichroism is the unequal absorption of left and right circularly polarised light.

The test system of the next data set is S. aureus ATCC25923. Description: Antimicrobial activity, microtiter dilution MIC. Type of data set: cell-based, Staphylococcus aureus. As to conditions: G+; MH medium, 5 × 10^5 CFU/mL, 37 °C, 24 h, triplicate. The procedure: (§1) The antimicrobial activity of the peptides was determined by the standard microtiter dilution method and indicated as MIC (minimal inhibitory concentration) as described previously. Briefly, bacteria were cultured in Mueller–Hinton (MH) medium overnight at 37 °C, diluted to a final inoculum of 5 × 10^5 colony-forming units (CFU)/mL with MH and loaded into 96-well microtiter plates (90 μL/well) with serial dilution of peptides (10 μL/well), with a further incubation at 37 °C for 24 h. MIC was expressed as the lowest peptide concentration that inhibited the growth of bacteria. The antimicrobial assays were repeated in triplicate.

The test system of another data set is S. epidermidis ATCC12228. Kind of data set: Antimicrobial activity, microtiter dilution MIC. The format is cell-based, Staphylococcus epidermidis. As to conditions: G+; MH medium, 5 × 10^5 CFU/mL, 37 °C, 24 h, triplicate. The procedure:
as §1

The subject of a further data set is P. aeruginosa ATCC27853. Description: Antimicrobial activity, microtiter dilution MIC. The format is cell-based, Pseudomonas aeruginosa. As to conditions: G−; MH medium, 5 × 10^5 CFU/mL, 37 °C, 24 h, triplicate. As to the method:
as §1

A further data set has as its system E. coli ATCC25922. Kind of data set: Antimicrobial activity, microtiter dilution MIC. The format is cell-based, Escherichia coli. The conditions noted are these: G−; MH medium, 5 × 10^5 CFU/mL, 37 °C, 24 h, triplicate. As to the method:
as §1

Data set [3] deals with human red blood (hRBC) cells. Kind of data set: Hemolytic activity assay. The format is cell-based. The conditions noted are these: 2% human RBC in PBS, 37 °C, 2 h, absorbance 578 nm, triplicate. As to the method: The […] of the peptides was measured by a hemolytic activity assay as described previously. Briefly, healthy human RBCs were collected using an anticoagulation tube with EDTAK2 and centrifuged at 1000 rpm for 5 min. The erythrocytes were washed three times, then diluted to a concentration of 2% in phosphate-buffered saline (PBS). The peptides were serially diluted in PBS and 70 μL of the peptide solutions and 2% RBC suspension were added simultaneously to each well of a 96-well plate (round bottom) for a further incubation at 37 °C for 2 h. Then, the plates were centrifuged for 10 min at 3000 rpm and the supernatant (90 μL) was transferred to a 96-well plate (flat bottom). The absorbance of the supernatant was measured on a microplate reader at 578 nm. Erythrocytes in PBS and distilled water were used as the negative (0%) and positive (100%) controls, respectively. The hemolytic activity was calculated as the percentage of experimental group over positive control (100%), after subtraction of negative control (0%). The hemolytic assays were repeated in triplicate.

The next data set has as its system BxPC-3. Kind of data set: MTT cell viability assay. The format is cell-based, human. As to conditions: BxPC-3, MTT, 24 h; mean ± SEM of three independent determinations. As to the method: (§2) HeLa, MIA PaCa-2, HPAC, and Bxpc-3 cells were maintained in Dulbecco’s modified Eagle medium) with 10% fetal bovine serum, penicillin (100 U/mL), and streptomycin ([…]) in a humid atmosphere at 37 °C with 5% CO2. The effect of the peptides on the survival of HeLa, MIA PaCa-2, HPAC, and Bxpc-3 cells was determined by 3-(4,5-dimethyl-2-thiazolyl)-2,5-diphenyl-2H-tetrazolium bromide (MTT) assay, as described in a previous study. Briefly, cells were seeded in 96-well plates at a density of 5000 per well. After overnight incubation, cells were incubated, in the absence, or presence of various concentrations of peptides for 24 h. Then, the formazan crystals formed by MTT were dissolved with dimethyl sulfoxide (DMSO) and the absorbance was determined at 492 nm with a microplate reader (GF-M3000; Gaomi Caihong Analytical Instruments Co., Shandong, China). The results were expressed as IC50 values, representing the concentration at which cell viability was reduced by 50%. The cytotoxicity assays were repeated in triplicate.
A general note: Tetrazolium assays rely on reduction of a dye to a coloured formazan, in cell work by metabolically active cells.

In the next data set the test system is HPAC. Description: MTT cell viability assay. Type of data set: cell-based, human. As to conditions: 24 h, mean ± SEM of three independent determinations. The procedure: as §2
A further data set deals with HeLa. Kind of data set: MTT cell viability assay. Type of data set: cell-based, human. As to conditions: 24 h, mean ± SEM of three independent determinations. As to the method: as §2
The test system of the next data set is MIA PaCa-2. Description: MTT cell viability assay. The format is cell-based, human. The conditions noted are these: MIA PaCa-2, MTT, 24 h; mean ± SEM of three independent determinations. As to the method: as §2

In brackets after ≈: the same amount, converted by molar mass.

Consider `CC[C@H](C)[C@H](NC(=O)[C@H](C)NC(=O)[C@H](CCCCN)NC(=O)[C@H](CC(C)C)NC(=O)[C@H](C)NC(=O)[C@@H](NC(=O)[C@H](Cc1c[nH]cn1)NC(=O)[C@H](CC(C)C)NC(=O)[C@@H](NC(=O)[C@@H](NC(=O)[C@H](CCCCN)NC(=O)[C@H](CCCCN)NC(=O)[C@@H](C)NC(=O)[C@H](CO)NC(=O)[C@H](CCCCN)NC(=O)[C@@H](Cc1ccccc1)NC(=O)[C@@H](NC(=O)[C@H](CCCCN)NC(=O)[C@H](CC(C)C)NC(=O)[C@H](Cc1ccccc1)NC(=O)[C@H](CO)NC(=O)[C@H](CCCCN)NC(=O)[C@H](Cc1c[nH]c2ccccc12)NC(=O)[C@H](CCCCN)NC(C)=O)[C@@H](C)O)[C@@H](C)O)C(C)C)[C@@H](C)O)C(=O)N[C@@H](CO)C(=O)N[C@@H](CO)C(N)=O` [F9D/A12D], for which the “tR (RP-HPLC retention time), relative hydrophobicity” value (shortened to “tR … relative hydrophobicity”) in data set [1] worked out at 40.04 min. For the same compound, the “[θ]222, benign” value in data set [2] is given as −2319.89 degree·cm^2·dmol^−1. Besides, the “[θ]222, 50% TFE” value in data set [2] is −19,328.6 degree·cm^2·dmol^−1. In addition, the “α-Helix (%), 50% TFE (relative helicity)” value in data set [2] was 38.26%. Moreover, the “α-Helix (%), benign” value in data set [2] is recorded as 4.6%. For the same compound, the MIC was found to be 125 µM (≈ 374 µg/mL) in the data set with S. aureus ATCC25923, 64 µM (≈ 191 µg/mL) against S. epidermidis ATCC12228, 32 µM (≈ 95.7 µg/mL) with P. aeruginosa ATCC27853 and 125 µM (≈ 374 µg/mL) against E. coli ATCC25922. The “MHC (minimal hemolytic concentration)” value in [3] was 250 µM. Also, the IC50 in the data set on BxPC-3 came out at 125 ± 3.7 µM; with HPAC it was 42.4 ± 3 µM; with HeLa, 59.8 ± 0.5 µM; in the data set with MIA PaCa-2, 38.8 ± 2.9 µM.

In the case of `CC[C@H](C)[C@H](NC(=O)[C@H](C)NC(=O)[C@H](CCCCN)NC(=O)[C@H](CC(C)C)NC(=O)[C@H](C)NC(=O)[C@@H](NC(=O)[C@H](Cc1c[nH]cn1)NC(=O)[C@H](CC(C)C)NC(=O)[C@@H](NC(=O)[C@H](NC(=O)[C@@H](CCCCN)NC(=O)[C@H](CCCCN)NC(=O)[C@H](C)NC(=O)[C@@H](CO)NC(=O)[C@H](CCCCN)NC(=O)[C@H](Cc1ccccc1)NC(=O)[C@@H](NC(=O)[C@H](CCCCN)NC(=O)[C@H](CC(C)C)NC(=O)[C@H](Cc1ccccc1)NC(=O)[C@H](CO)NC(=O)[C@H](CCCCN)NC(=O)[C@H](Cc1c[nH]c2ccccc12)NC(=O)[C@H](CCCCN)NC(C)=O)[C@@H](C)O)[C@H](C)O)C(C)C)[C@@H](C)O)C(=O)N[C@@H](CO)C(=O)N[C@@H](CO)C(N)=O` [S11D/K14D/T15D], the “tR … relative hydrophobicity” value in [1] came to 39.59 min. In addition, in [2], the “[θ]222, benign” value is −2845.85 degree·cm^2·dmol^−1. Moreover, the “[θ]222, 50% TFE” value in [2] was −19,537.5 degree·cm^2·dmol^−1. The “α-Helix (%), 50% TFE (relative helicity)” value in [2] was 38.67%. Also, in data set [2], the “α-Helix (%), benign” value is reported as 5.6%. Moreover, the MIC with S. aureus ATCC25923 stood at 64 µM (≈ 191 µg/mL); with S. epidermidis ATCC12228, 16 µM (≈ 47.9 µg/mL); in the data set on P. aeruginosa ATCC27853, 125 µM (≈ 374 µg/mL); against E. coli ATCC25922 it was 125 µM (≈ 374 µg/mL). Besides, in data set [3], the “MHC (minimal hemolytic concentration)” value is 250 µM. Moreover, the IC50 in the data set with BxPC-3 is 45.5 ± 5.6 µM; in the data set on HPAC it was 54.2 ± 1.2 µM; in the data set on HeLa, 41.1 ± 0.5 µM; in the data set on MIA PaCa-2 it was 56.8 ± 3.3 µM.

In the case of `CC[C@H](C)[C@H](NC(=O)[C@H](C)NC(=O)[C@H](CCCCN)NC(=O)[C@H](CC(C)C)NC(=O)[C@H](C)NC(=O)[C@@H](NC(=O)[C@H](Cc1c[nH]cn1)NC(=O)[C@H](CC(C)C)NC(=O)[C@@H](NC(=O)[C@H](NC(=O)[C@@H](CCCCN)NC(=O)[C@H](CCCCN)NC(=O)[C@H](C)NC(=O)[C@H](CO)NC(=O)[C@H](CCCCN)NC(=O)[C@H](Cc1ccccc1)NC(=O)[C@@H](NC(=O)[C@H](CCCCN)NC(=O)[C@H](CC(C)C)NC(=O)[C@H](Cc1ccccc1)NC(=O)[C@H](CO)NC(=O)[C@H](CCCCN)NC(=O)[C@H](Cc1c[nH]c2ccccc12)NC(=O)[C@H](CCCCN)NC(C)=O)[C@@H](C)O)[C@H](C)O)C(C)C)[C@@H](C)O)C(=O)N[C@@H](CO)C(=O)N[C@@H](CO)C(N)=O` [K14D/T15D], in [1], the “tR … relative hydrophobicity” value is given as 40.41 min. Further, the “[θ]222, benign” value in data set [2] is given as −1862.4 degree·cm^2·dmol^−1. For the same compound, the “[θ]222, 50% TFE” value in data set [2] is on record as −28,551.5 degree·cm^2·dmol^−1. The “α-Helix (%), 50% TFE (relative helicity)” value in data set [2] is 56.51%. Besides, the “α-Helix (%), benign” value in data set [2] was 3.7%. The MIC against S. aureus ATCC25923 was found to be 64 µM (≈ 191 µg/mL); in the data set with S. epidermidis ATCC12228, 16 µM (≈ 47.9 µg/mL); in the data set with P. aeruginosa ATCC27853 it was 32 µM (≈ 95.7 µg/mL); in the data set on E. coli ATCC25922, 64 µM (≈ 191 µg/mL). For the same compound, the “MHC (minimal hemolytic concentration)” value in data set [3] amounted to 250 µM. Moreover, the IC50 in the data set on BxPC-3 was found to be 24.1 ± 5.5 µM; in the data set with HPAC it was 22.5 ± 0.5 µM; with HeLa it was 31.6 ± 2.1 µM; with MIA PaCa-2, 47.1 ± 5.3 µM.

For orientation: MIC means the lowest concentration that inhibits growth of the organism. Low readings indicate inhibition by little substance, high ones a need for much substance. The IC50 is the midpoint of a concentration-inhibition curve.
